Data from patent publication US20260078108A1, “SOLID FORMS OF A ROCK INHIBITOR” (REDX PHARMA PLC, priority 2022, published 2026).

Legend:
Type in all cases: cell-based
CB2 (h) = target: T1, CB2 (h) (Homo sapiens, UniProt P34972); experiment: CEREP panel CB2 (h) agonist effect, cAMP HTRF; conditions: HCl salt tested, CHO cells
T1 construct: expressed in transfected cells; host or cells: CHO cells
Source text: (§1) The use of in vitro pharmacological screening against a diverse range of targets (receptors, ion channels, enzymes and transporters) is used to identify undesirable off-target activity that may cause adverse drug reactions in humans. Screening panels (e.g. SafetyScreen44™ Panel, Eurofins) comprise a selection of off-targets linked with known issues in humans that could hinder or halt the development of drug candidates or market withdrawal if discovered after a drug is approved. The HCl salts of the S enantiomer and the R enantiomer of compound A were tested against a panel of such targets.
(§2) The tests were carried out according to the methods described in the following tables and indicated literature references.

M2 (h) = target: T2, M2 (h) (Homo sapiens, UniProt P08172); experiment: CEREP panel M2 (h) agonist effect, cAMP HTRF; conditions: HCl salt tested, CHO cells
T2 construct: expressed in transfected cells; host or cells: CHO cells
T2 sequence (P08172 1-466): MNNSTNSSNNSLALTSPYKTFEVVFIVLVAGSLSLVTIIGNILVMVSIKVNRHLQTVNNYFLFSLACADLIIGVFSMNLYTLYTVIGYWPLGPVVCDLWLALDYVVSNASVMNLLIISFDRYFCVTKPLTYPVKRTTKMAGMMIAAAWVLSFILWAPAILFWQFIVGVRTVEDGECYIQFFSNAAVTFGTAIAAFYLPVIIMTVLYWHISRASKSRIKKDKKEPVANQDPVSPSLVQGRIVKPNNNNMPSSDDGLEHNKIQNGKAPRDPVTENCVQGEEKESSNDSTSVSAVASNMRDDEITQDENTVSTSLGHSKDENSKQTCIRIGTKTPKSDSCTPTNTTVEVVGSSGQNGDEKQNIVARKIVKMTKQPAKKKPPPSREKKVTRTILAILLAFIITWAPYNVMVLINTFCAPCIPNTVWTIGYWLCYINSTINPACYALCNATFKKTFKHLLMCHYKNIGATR
Source text: as §1, §2

[1] = target: T3, Norepinephrine transporter (Homo sapiens, UniProt P23975); experiment: CEREP panel norepinephrine transporter uptake (h), [3H]NE incorporation; conditions: HCl salt tested; [3H]NE incorporation into cells
T3 construct: expressed in transfected cells
T3 sequence (P23975 whole entry): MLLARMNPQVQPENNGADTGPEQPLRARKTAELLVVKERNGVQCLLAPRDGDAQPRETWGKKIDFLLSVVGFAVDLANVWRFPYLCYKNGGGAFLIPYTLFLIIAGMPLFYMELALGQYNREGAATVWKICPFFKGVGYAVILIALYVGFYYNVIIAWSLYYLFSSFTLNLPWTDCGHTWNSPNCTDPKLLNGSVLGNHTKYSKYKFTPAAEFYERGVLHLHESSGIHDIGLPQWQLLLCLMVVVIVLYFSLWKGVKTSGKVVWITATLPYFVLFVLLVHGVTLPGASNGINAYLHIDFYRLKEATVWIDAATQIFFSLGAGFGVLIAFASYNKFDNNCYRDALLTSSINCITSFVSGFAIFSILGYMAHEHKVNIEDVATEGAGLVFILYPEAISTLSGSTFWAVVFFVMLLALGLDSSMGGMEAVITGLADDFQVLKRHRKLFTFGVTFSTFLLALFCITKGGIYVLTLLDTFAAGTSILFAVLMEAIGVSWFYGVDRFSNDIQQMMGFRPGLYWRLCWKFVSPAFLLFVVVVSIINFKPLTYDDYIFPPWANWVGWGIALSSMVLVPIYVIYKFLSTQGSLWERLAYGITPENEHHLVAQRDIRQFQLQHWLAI
Source text: as §1, §2

T1 sequence (P34972 whole entry): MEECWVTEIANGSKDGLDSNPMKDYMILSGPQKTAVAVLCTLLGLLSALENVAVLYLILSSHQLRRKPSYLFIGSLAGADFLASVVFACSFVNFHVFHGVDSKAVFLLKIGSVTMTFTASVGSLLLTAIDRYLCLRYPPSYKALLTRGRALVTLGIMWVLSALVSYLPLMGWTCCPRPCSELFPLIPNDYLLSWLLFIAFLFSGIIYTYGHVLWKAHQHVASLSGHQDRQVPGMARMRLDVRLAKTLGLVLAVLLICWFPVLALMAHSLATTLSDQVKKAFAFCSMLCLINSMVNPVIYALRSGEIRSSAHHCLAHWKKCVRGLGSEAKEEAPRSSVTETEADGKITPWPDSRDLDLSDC

| CB2 (h) (agonist effect) (EC50) (CB2 (h)) | EC50 (M2 (h)) [µM] | IC50 [1] [µM] | Compound |
| --- | --- | --- | --- |
| Inactive | 93 | 21 | NCc1ccc(C(=O)Nc2ccncc2F)cc1-c1cccc(C(=O)Nc2ccc(SC[C@H]3CCOC3=O)cc2)c1 [S-enantiomer] |
| Inactive | > 10 | 8.9 | NCc1ccc(C(=O)Nc2ccncc2F)cc1-c1cccc(C(=O)Nc2ccc(SC[C@@H]3CCOC3=O)cc2)c1 [R-enantiomer] |
